“Also recorded” adds a separate entry of the source. Counter-ions that a name gives are not always drawn.
Tests used:
Type in all cases: in vivo, Dark Agouti rats
[1] = tested on: GSH/GSSG ratio and lipoperoxides (LPO); experiment: Biomarkers of oxidative stress (LPO, GSH/GSSG ratio) in brain and spinal cord of EAE rats; conditions: FIG. 4; for GSH/GSSG ratio in brain and spinal cord: Example 3, end of study (35 days), NAC and SAC oral 50 mg/kg, versus untreated EAE
Description: (§1) 70 Dark Agouti rats were used, 35 females and 35 males. Each group of 10 animals had 5 male rats housed in individual boxes and 5 females equally maintained in individual boxes. The following groups were included: i) Controls (untreated healthy animals); ii) vehicle (animals injected in the tail with 100 microlitres of Freund's complete adjuvant (FCA) but without the EAE-inducing peptide, the MOG peptide ([…]); iii) EAE (animals injected once into the tail with 150 μg of MOG (Sigma-Aldrich) in 100 microlitres of FCA); iv) EAE+dimethyl fumarate (EAE+DMF); v) EAE+N-acetyl cysteine (EAE+NAC); and vi) EAE+SAC. The treatments with NAC and SAC were administered to the animals orally using a probe and at a dose of 50 mg/kg of animal weight.
At the end of the study, the animals were decapitated at a controlled temperature using intraperitoneal anaesthesia with ketamine 75 mg/kg (Imalgene 100 mg/ml, Merial Laboratories, Barcelona, Spain). The brains, blood and spinal cord were extracted, weighed and homogenized with a mechanical homogenizer (Tempest Virtis), using 20 mM Tris at pH 7.4 as a buffer. The samples were centrifuged cold and the supernatants were immediately collected and stored at −80° C.
Total protein levels were quantified by the Bradford method and referenced to the original tissue weight. Oxidative stress parameters such as lipid peroxidation (LPO), total glutathione (tG) and reduced glutathione (GSH) were then measured in blood, brain and spinal cord using kits from Bioxytech SA (Oxis International, Portland, Oreg., USA): LPO-586, GSH-420 and GSH-400, respectively. Oxidised glutathione levels (GSSG) were calculated by subtracting reduced glutathione from total glutathione and the GSH/GSSG ratio was calculated.
(§2) The statistical analysis was performed with the SPSS program (SPSS Ibérica, Madrid, Spain). The data are reported as mean±standard deviation (SD). […] To analyse the correlation between the biochemical parameters and the mobility of the animals at 35 days (Clinical assessment-35), Spearman's rho correlation coefficient was used. The level of statistical significance was established at p<0.05.

[2] = tested on: EAE (experimental autoimmune encephalomyelitis); experiment: Clinical assessment of mobility in rats with EAE induced by MOG/FCA; conditions: for Change in the clinical assessment of mobility between day 35 and day 14: Example 3, NAC and SAC oral 50 mg/kg, treatment for 21 days, FIG. 3; for Change in the clinical assessment of mobility between days 35 and 14: FIG. 5
Method: Next, an experiment was designed to study the effect of SAC in rats with EAE (experimental autoimmune encephalomyelitis), a model of multiple sclerosis widely used for the development of new treatments for this neurodegenerative disease in humans. To evaluate the effect of this compound on the disease, the change in clinical parameters of mobility in each of the joints and in the tail (clinical score or clinical assessment) was measured, as well as the biomarkers of oxidative stress that explain the change in joint mobility in rats.
as §1
The mobility of the rats was evaluated using the method described by Pérez-Nievas (Pérez-Nievas, 2010) in which 0 is equivalent to not having any affected joint or tail; 1 equals paralysis in the tail; 2 equals partial mobility in the hind legs; 3 equals paralysis in the hind legs; 4 equals paralysis in the hind legs and partial mobility in the front legs and 5 equals a dying animal or that must be sacrificed for ethical reasons.
as §2
Next, an experiment was designed to study whether the effect of NAC and SAC were different depending on the dose administered in animal models of EAE. For this, the change in clinical parameters of mobility in each of the joints and the tail (clinical score or clinical assessment) was measured at 2 different doses of NAC and SAC; 18 mg/kg and 50 mg/kg administered orally for 5 days a week and following the same experimental design as Example 3.
(§3) 70 Dark Agouti rats, 35 females and 35 males, were used. Each group of 10 animals had 5 male rats housed in individual boxes and 5 females equally maintained in individual boxes. The following groups were included: i) Controls (untreated healthy animals); ii) vehicle (animals injected in the tail with 100 microlitres of Freund's complete adjuvant (FCA) but without the EAE-inducing peptide, the MOG peptide; iii) EAE (animals injected 1 time in the tail with 150 μg of MOG (Sigma-Aldrich) in 100 microlitres of FCA); iv) EAE+N-acetyl cysteine at 18 mg/kg (EAE+NAC18); v) EAE+N-acetyl cysteine at 50 mg/kg (EAE+NACSO); vi) EAE+SAC at 18 mg/kg (EAE+SAC18) and vii) EAE+SAC at 50 mg/kg (EAE+SAC50). The treatments with NAC and SAC were administered to the animals orally 5 days a week at a dose of 18 mg/kg or 50 mg/kg of the animal's weight.
The analysis of the mobility of the animals, their sacrifice, tissue management, determination of the total proteins and the statistical analysis, was carried out as previously described in Example 3.

[3] = tested on: LBP (lipopolysaccharide binding protein); experiment: Soluble LBP levels (ELISA) in brain, spinal cord and blood of EAE rats; conditions: authors' observation in the background section
Method: as §3, with “weight. […]” for “weight.”
(§4) The measurement of lipopolysaccharide-binding soluble lipoprotein (LBP) levels was performed with the LBP soluble ELISA Kit (Enzo®, USA), in a sandwich ELISA system following the manufacturer's instructions. The levels of lipopolysaccharide (LPS) in blood and spinal cord were measured with the Pierce LAL Chromogenic endotoxin quantification kit supplied by Thermo Scientific (USA), following the manufacturer's instructions.® The data are presented as endotoxin units per milligram of tissue protein.

[4] = tested on: LPS (bacterial lipopolysaccharide); experiment: LPS levels (LAL chromogenic endotoxin kit) in blood and spinal cord of EAE rats; conditions: Example 4, 50 mg/kg orally, SAC compared to NAC at the same concentration, FIG. 7
Method: as §3, with “weight. […]” for “weight.”
as §4

[5] = Example 4, 18 mg/kg orally 5 days a week
[6] = Example 4, 50 mg/kg orally 5 days a week

Row | SMILES | GSH/GSSG ratio in brain and spinal cord [1] | Change in the clinical assessment of mobility between day 35 and day 14 [2] | Level of LBP after administration in animal models (pro-inflammatory effect) [3] | Change in the clinical assessment of mobility between days 35 and 14 [2, 5] | Change in the clinical assessment of mobility between days 35 and 14 [2, 6] | Oxidative damage induced by MOG/FCA (LPO, GSH/GSSG), SAC compared with NAC ([1]; Example 3, oral 50 mg/kg, 35 days) | Levels of LPS in blood and spinal cord [4]
1 | COC(=O)/C=C/C(=O)OC [DMF, dimethyl fumarate] | increased the GSH/GSSG ratio with respect to untreated animals (EAE); also recorded: induces an increase in the GSH/GSSG ratio | showed a reduction of the clinical assessment of mobility between day 35 and 14 |  |  |  |  | 
2 | CC(=O)N[C@@H](CS)C(=O)O [NAC, N-acetylcysteine] | increased the GSH/GSSG ratio with respect to untreated animals (EAE); also recorded: induces an increase in the GSH/GSSG ratio | showed a reduction of the clinical assessment of mobility between day 35 and 14 | the level of LBP (lipopolysaccharide binding protein) increases | did not cause a reduction of the clinical assessment of mobility between days 35 and 14 | equally effective with respect to the group of animals with EAE without treatment |  | 
3 | C=CCSC[C@H](N)C(=O)O [SAC, S-allyl-L-cysteine] | increased the GSH/GSSG ratio with respect to untreated animals (EAE); also recorded: induces an increase in the GSH/GSSG ratio | showed a reduction of the clinical assessment of mobility between day 35 and 14 |  | caused a reduction in the clinical assessment of mobility equivalent to that caused by 50 mg/kg of NAC or SAC | equally effective with respect to the group of animals with EAE without treatment | more effective than NAC in minimising oxidative damage induced by MOG/FCA; also recorded: corrects the oxidative damage induced by MOG/FCA to a higher percentage than the NAC | significantly reduced the levels of LPS in blood and spinal cord compared to NAC

— patent US20190380986A1, “METHOD FOR PRODUCING EXTRACTS ENRICHED WITH SULFOXIDE-FREE ORGANOSULFUR COMPOUNDS, S-ALKENYL-LCYSTEINE AND S-ALKYL-LCYSTEINE, FROM PLANT RAW MATERIALS, AND USES THEREOF IN THE TREATMENT OF INFLAMMATORY DISEASES” (CANVAX BIOTECH, S.L, priority 2017, published 2019)
